Reference: patent US11339156B2, “3-(1H-pyrazol-4-yl)pyridine allosteric modulators of the M4 muscarinic acetylcholine receptor” (Merck Sharp & Dohme Corp., priority 2017, dated 2022)

These molecules were tested against T1, human M4 muscarinic acetylcholine receptor (Homo sapiens, UniProt P08173) (assay: human FLIPR-based M4 PAM assay (CHO-K1 cells with human M4 receptor and Gαqi5, calcium dye fluorescence)). Conditions: inflection point of 4 parameter logistic fit; acetylcholine added at 20% of maximum response; read-out: M4PAM IP.
T1 construct: expressed in transfected cells
T1 sequence (P08173 1-479): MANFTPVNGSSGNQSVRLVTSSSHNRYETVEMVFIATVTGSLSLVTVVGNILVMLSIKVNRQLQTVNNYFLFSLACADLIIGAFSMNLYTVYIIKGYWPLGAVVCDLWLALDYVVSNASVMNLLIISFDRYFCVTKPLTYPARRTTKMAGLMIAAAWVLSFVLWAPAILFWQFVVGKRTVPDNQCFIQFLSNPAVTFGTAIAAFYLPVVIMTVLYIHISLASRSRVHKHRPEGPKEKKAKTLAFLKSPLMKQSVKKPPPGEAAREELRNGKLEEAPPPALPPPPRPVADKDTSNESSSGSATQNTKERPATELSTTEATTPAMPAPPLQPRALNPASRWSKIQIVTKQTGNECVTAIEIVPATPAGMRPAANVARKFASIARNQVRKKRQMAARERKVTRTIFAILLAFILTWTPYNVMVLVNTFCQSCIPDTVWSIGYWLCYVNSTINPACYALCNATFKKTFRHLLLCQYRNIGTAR
Assay type: cell-based
Method in brief: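 CHO-K1 cells were loaded with calcium dye at 37 °C for ~1 h. Fluorescence (ex 470–495/em 515–575 nm) was read for 4 min after test compound at increasing concentrations, then 3.5 min after acetylcholine at an EC20; sometimes a third addition at EC70 followed. The value is the inflection point of a 4-parameter logistic fit.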

Row | SMILES | EC50 [nM]
1 | Cc1nc2cc(-c3nc(C#N)ccc3-c3cnn(C[C@]4(F)C[C@H](F)C4)c3)ccc2n1C [Example 129, 5-(1-(((1r,3r)-1,3-difluorocyclobutyl)methyl)-1H-pyrazol-4-yl)-6-(1,2-dimethyl-1H-benzo[d]imidazol-5-yl)picolinonitrile] | 114
2 | CC(C)(C)Cn1ncc(-c2ccc(C#N)nc2-c2ccn3ccnc3c2)c1F [Example 135, 5-[1-(2,2-dimethylpropyl)-5-fluoro-1H-pyrazol-4-yl]-6-imidazo[1,2-a]pyridin-7-ylpyridine-2-carbonitrile] | 36.5
3 | Cc1ccc(-c2cnn(CCC(C)C)c2C#N)c(-c2ccn3ccnc3c2)n1 [Example 136, 4-(2-imidazo[1,2-a]pyridin-7-yl-6-methylpyridin-3-yl)-1-(3-methylbutyl)-1H-pyrazole-5-carbonitrile] | 741
4 | Cc1cc(-c2cnn(CC3(C(F)(F)F)CC3)c2)c(-c2ccn3ccnc3c2)nc1C#N [Example 138, 6-imidazo[1,2-a]pyridin-7-yl-3-methyl-5-(1-{[1-(trifluoromethyl)cyclopropyl]methyl}-1H-pyrazol-4-yl)pyridine-2-carbonitrile] | 59.9

The remaining molecules from weak to strong by EC50, led by results:

Row | EC50 [nM] | SMILES
5 | 381 | Cc1nc2cc(-c3ncccc3-c3cnn(CC4(F)CC(F)(F)C4)c3)ccn2n1 [Example 130, 2-methyl-7-(3-(1-((1,3,3-trifluorocyclobutyl)methyl)-1H-pyrazol-4-yl)pyridin-2-yl)-[1,2,4]triazolo[1,5-a]pyridine]
6 | 345 | CSc1cnc(-c2ccc3c(c2)C(=O)NC3)c(-c2cnn(CCC(C)C)c2)c1 [Example 137, 6-(3-(1-isopentyl-1H-pyrazol-4-yl)-5-(methylthio)pyridin-2-yl)isoindolin-1-one]
7 | 249 | CC(C)(Cn1cc(-c2ccc(C(N)=O)nc2-c2ccn3ccnc3c2)cn1)C(F)(F)F [Example 132, 6-(imidazo[1,2-a]pyridin-7-yl)-5-(1-(3,3,3-trifluoro-2,2-dimethylpropyl)-1H-pyrazol-4-yl)picolinamide]
8 | 162 | Cc1cc(-c2cnn(CC3(C(F)(F)F)CC3)c2)c(-c2ccn3ccnc3c2)nc1C [Example 139, 7-[5,6-dimethyl-3-(1-{[1-(trifluoromethyl)cyclopropyl]methyl}-1H-pyrazol-4-yl)pyridin-2-yl]imidazo[1,2-a]pyridine]
9 | 77.3 | Cc1nc(-c2ccc3c(c2)nc(C)n3C)c(-c2cnn(CC(C)(C)C(F)(F)F)c2)cc1F [Example 131, 5-(5-fluoro-6-methyl-3-(1-(3,3,3-trifluoro-2,2-dimethylpropyl)-1H-pyrazol-4-yl)pyridin-2-yl)-1,2-dimethyl-1H-benzo[d]imidazole]
10 | 57.5 | CC1(Cn2cc(-c3ccc(C#N)nc3-c3ccn4ccnc4c3)cn2)CC1(F)F (stereo not shown) [Example 134, 5-(1-((2,2-difluoro-1-methylcyclopropyl)methyl)-1H-pyrazol-4-yl)-6-(imidazo[1,2-a]pyridin-7-yl)picolinonitrile]
